Consider 70 compounds from the OPERA property sets (Mansouri et al. 2018).

Conditions in the first data set: not given
A word on the melting point: it is the temperature, or range, at which the solid turns liquid. Turning to `CC(/C=C/C=C(\C)C(=O)O)=C\C=C\C=C(C)\C=C\C=C(/C)C(=O)O`, the melting point came out at 286 °C.

In turn, `Clc1cc(Cl)c(Cl)c(-c2c(Cl)c(Cl)cc(Cl)c2Cl)c1Cl` came in with a log10 Henry constant (atm·m³/mol) of -4.74 and a log10 Koc (L/kg) of 6.36.

`Oc1c(C2CCCCC2)cccc1C1CCCCC1`: the ready biodegradability entry is “not readily biodegradable”.

Consider `CNP(=O)(OC)Oc1ccc(C(C)(C)C)cc1Cl` (configuration not stated), for which the melting point was found to be 60 °C.

Turning to `O=C1C=C(Cl)C(=O)C(Cl)=C1`, the melting point came to 123 °C.

Usually boiling point stands for the temperature of boiling at a given pressure. Compound `Cc1ccc(F)cc1` came in with a boiling point of 117 °C, a log10 vapour pressure (mmHg) of 1.32 and a melting point of -56 °C.

With `Nc1ccc(S(=O)(=O)c2ccc(NCC(=O)O)cc2)cc1`, the melting point was found to be 194 °C.

For `C1=CCCC1`, the boiling point was found to be 44.2 °C, the log10 vapour pressure (mmHg) was found to be 2.58, the melting point was -135 °C and the ready biodegradability entry is given as “readily biodegradable”.

For `CS(=O)(=O)O`, the log10 vapour pressure (mmHg) is -3.37, the melting point came to 20 °C and the ready biodegradability entry is listed as “readily biodegradable”.

Compound `CC1(C)C(O)=CC(=O)C=C1O` had a melting point of 214 °C.

For the compound `O=C(N[C@@H](Cc1ccccc1)C(=O)O)OCc1ccccc1`, the melting point was 88.5 °C.

Compound `CNC(=O)Nc1ccccc1` had a log10 Koc (L/kg) of 1.29.

Consider `CC(=O)[C@@]12O[C@](C)(c3ccccc3)O[C@@H]1C[C@H]1[C@@H]3CCC4=CC(=O)CC[C@]4(C)[C@H]3CC[C@@]12C`, for which the melting point was 150 °C.

The compound `O=C(Cl)c1cccc(F)c1` gave a boiling point of 189 °C and a melting point of -30 °C.

For `FC(F)(F)c1nc(C(F)(F)F)nc(C(F)(F)F)n1`, the boiling point came to 95.5 °C and the melting point was -24.8 °C.

With `CC(C)(C#N)N=NC(C)(C)C#N`, the ready biodegradability result is “not readily biodegradable”.

As for `CC(=O)O`, the boiling point amounted to 118 °C, the log10 Henry constant (atm·m³/mol) is -7, the log10 vapour pressure (mmHg) was found to be 1.2 and the melting point was 16.6 °C. In addition, the ready biodegradability result is reported as “readily biodegradable”.

Regarding `CCN(C(C)C)C(C)C`, the boiling point is 126 °C.

Consider `CC(C)C=CC(C)C`, for which the log10 vapour pressure (mmHg) is 1.64.

On to `CC(c1ccc(Cl)cc1)c1ccc(Cl)cc1`, for which the boiling point was determined as 320 °C and the melting point came to 56 °C.

In the case of `CC(C)Cc1ccc(CC(=O)O)cc1`, the melting point was 86 °C.

In turn, `COc1ccc(/C=C/NC=O)cc1` gave a melting point of 132 °C.

Compound `O=Cc1ccccc1Br` displayed a boiling point of 230 °C and a melting point of 21.5 °C.

Regarding `Clc1cc2c(Cl)cc(Cl)c(Cl)c2c(Cl)c1Cl`, the log10 Koa was determined as 9.67 and the log10 vapour pressure (mmHg) was -6.46.

Take `OC1CCCC1C1CCCC1` (configuration not stated): the boiling point came to 236 °C and the melting point came to 20 °C.

Turning to `COc1ccc(C(=O)CC(=O)c2ccc(C(C)(C)C)cc2)cc1`, the melting point is 83.5 °C.

With `O=C(Nc1ccc2nn(C3CCCCC3)nc2c1)c1ccccc1`, the melting point was 212 °C.

Take `NCc1cc(O)no1`: the melting point was determined as 175 °C.

For the compound `O=C(CC(=O)C(F)(F)F)C(F)(F)F`, the boiling point turned out to be 70 °C.

Regarding `CCC(C)CC(C)(C)C` (configuration not stated), the boiling point came out at 126 °C, the log10 vapour pressure (mmHg) amounted to 1.2 and the melting point was -120 °C.

`c1ccc2c(c1)ccc1[nH]c3ccccc3c12` returned a boiling point of 448 °C and a melting point of 134 °C.

For `NC(=O)c1cccnc1`, the melting point was 130 °C.

Compound `CCCOCC` registered a boiling point of 63.2 °C, a log10 vapour pressure (mmHg) of 2.26 and a melting point of -128 °C.

As to `Oc1ccc2ncccc2c1`, the boiling point amounted to 360 °C and the melting point is 195 °C.

As for `Nc1cc2c3ccccc3ccc2c2ccccc12`, the log10 Koc (L/kg) was found to be 5.21 and the melting point worked out at 210 °C.

The compound `Cc1cc[nH]n1` gave a boiling point of 204 °C and a melting point of 36.5 °C.

`Cc1cccc2cc3ccc4ccccc4c3cc12` showed a melting point of 118 °C.

The compound `N=CN` came in with a melting point of 81 °C.

`C=CC[C@H](O)CCC` had a boiling point of 152 °C.

Compound `CCCCCC(C)C(C)C` (configuration not stated) yielded a boiling point of 164 °C.

On to `Oc1c(Cl)cc(Cl)c2ccccc12`, for which the melting point came out at 108 °C and the ready biodegradability result was “not readily biodegradable”.

For the compound `CSC(C)(C)C=NO`, the boiling point turned out to be 210 °C and the melting point is 21 °C.

The compound `CC(C)(C)c1ccc(Br)cc1` came in with a boiling point of 232 °C and a melting point of 19 °C.

As for `CCCCC(CC)COC(=O)COc1cc(Cl)c(Cl)cc1Cl` (configuration not stated), the log10 vapour pressure (mmHg) was -5.92.

`O=[N+]([O-])c1ccc(Oc2ccc(Cl)cc2Cl)cc1`: the log10 Koc (L/kg) was 4, the melting point was determined as 70 °C and the ready biodegradability result was “not readily biodegradable”.

On to `NS(=O)(=O)c1cc2c(cc1Cl)NC(Cc1ccc(F)cc1)NS2(=O)=O` (configuration not stated), for which the melting point came out at 239 °C.

`OCCOc1ccc(N=Nc2ccccc2)cc1`: the log10 vapour pressure (mmHg) was -7.67.

`CN=C(O)Sc1ccc(OS(C)(=O)=O)cc1` came in with a melting point of 137 °C.

Compound `CCOP(=O)(N=C1SCS1)OCC` gave a log10 vapour pressure (mmHg) of -5.19.

`CNC(=O)ON=C(SC)C(=O)N(C)C` gave a log10 Koc (L/kg) of 1 and a melting point of 101 °C.

With `Clc1cc(-c2c(Cl)ccc(Cl)c2Cl)c(Cl)c(Cl)c1Cl`, the log10 Henry constant (atm·m³/mol) was -4.85.

For `O=C(O)c1cccc2cccc(Cl)c12`, the melting point worked out at 172 °C.

As for `NC(=O)C#CC#CC#CCO`, the melting point was 140 °C.

On to `O=C1CCCO1`, for which the boiling point amounted to 204 °C, the log10 vapour pressure (mmHg) is -0.347, the melting point was -43.3 °C and the ready biodegradability entry is on record as “readily biodegradable”.

`c1ccc2c(c1)c1cccc3ccc4cccc2c4c31` came in with a log10 biodegradation half-life (days) of 2.56, a log10 vapour pressure (mmHg) of -8.24 and a melting point of 178 °C.

`O=C(OC(=O)C(Cl)(Cl)Cl)C(Cl)(Cl)Cl` had a log10 vapour pressure (mmHg) of -0.908.

As for `CN1C(C(=O)Nc2ccccn2)=C(O)c2ccccc2S1(=O)=O`, the melting point came out at 199 °C.

`Fc1cc2c(cc1F)Oc1cc(Cl)c(Cl)cc1O2` gave a log10 vapour pressure (mmHg) of -7.76 and a melting point of 223 °C.

For `Nc1cccc(C(F)(F)F)c1`, the boiling point amounted to 187 °C, the log10 Koc (L/kg) worked out at 2.36 and the melting point is 5.5 °C.

The compound `O=CC1CCCCC1` registered a boiling point of 159 °C.

`Cc1ccc(C(=O)O)c(C)c1` yielded a boiling point of 268 °C and a melting point of 90 °C.

In turn, `CCC(=O)N(CC)CC` came in with a boiling point of 191 °C.

Take `CCOC(=O)C=CCC(=O)OCC`: the boiling point is 237 °C.

Turning to `FC(F)(F)C(F)(Cl)C(F)(F)Cl` (configuration not stated), the boiling point stood at 34.1 °C.

`O=C(O)CCc1cc(I)c(Oc2ccc(O)c(I)c2)c(I)c1` had a melting point of 200 °C.

Take `COc1ccc2c(c1O)[C@]13CCN(C)[C@H](C2)[C@@H]1C=CC(=O)C3`: the melting point was found to be 152 °C.

The compound `Nc1ccc(-c2ccc(N)c(N)c2)cc1N` registered a melting point of 176 °C.

Take `OCCn1ccnc1`: the melting point was determined as 39 °C.

The compound `NC(=O)c1ccc([N+](=O)[O-])cc1` yielded a log10 Koc (L/kg) of 1.93 and a melting point of 200 °C.

In the case of `COCc1ccco1`, the boiling point turned out to be 132 °C.

The data set is the same for the next values; noted with them: fish.
`Clc1cc(Cl)c(Cl)c(-c2c(Cl)c(Cl)cc(Cl)c2Cl)c1Cl` displayed a log10 BCF of 5.82.

Regarding `Oc1c(C2CCCCC2)cccc1C1CCCCC1`, the log10 BCF stood at 3.02 and the log10 biotransformation half-life (days) worked out at 0.2.

Compound `Oc1c(Cl)cc(Cl)c2ccccc12` had a log10 BCF of 1.35.

Consider `Clc1cc(-c2c(Cl)ccc(Cl)c2Cl)c(Cl)c(Cl)c1Cl`, for which the log10 biotransformation half-life (days) was found to be 2.47.
